Data set [1] can be described thus: Solubility of Paclitaxel modified drug in saline solvent systems by HPLC. The conditions noted are these: for Fold increase in solubility: versus Paclitaxel; for Solubility compared with parent drug: aqueous solubility; for solubility: thermodynamic from solid. On the procedure:
Solubility was checked in different solvent systems.
Area under the curve for each were determined and based on that fold increase in solubility was determined.

Data set [2] is described as follows: Stability and solubility in dosing vehicle PEG400 and Normal saline. The conditions noted are these: PEG400 and Normal saline in fixed composition. Format: physicochemical.
Data set [3] is described as follows: Pharmacokinetics in SD rats, IV dosing (Paclitaxel and 1001).
Experimental: Pharmacokinetics studies were carried out to evaluate the plasma exposure of modified drug of Paclitaxel in SD rats when dosed intravenously (IV). The results were compared with exposure of Paclitaxel using the same dosing vehicle. The dosing vehicle that was used in this study was PEG400 and Normal saline in fixed composition. […] 3 mpk and 1 mpk IV dosing was done for the modified drug and 3 mpk IV for Paclitaxel parent drug. After IV dosing of the modified drug blood was collected by serial bleeding at different time points in heparinized tubes. Blood samples were centrifuged at 10,000 rpm for 5 min at 4° C. to obtain the plasma, which were aspirated into separate labeled tubes and stored at −80° C. Extraction solvent was added to plasma, was vortexed and shaken on shaker for 10 minutes, centrifuged at 10,000 rpm for 10 minutes at 4° C. Supernatant was kept for analysis.
Acetonitrile and plasma calibration curves were generated and percentage of drug recovery from plasma determined Quantitative analysis was done by liquid chromatography tandem mass spectrometer (API3000 LC-MS/MS).
Data set [4] in a line: Solubility in miliQ water by HPLC (area under the curve). Format: physicochemical.
Experimental: 1 mg/ml and 2 mg/ml solution of Mefloquine and Tadlafil respectively and equivalent weight of respective trigonelline modified compound (1011), compound (1005) of the present invention was taken in miliQ water, vortexed, centrifuged for 3 min, filtered and loaded on HPLC column (Zorbax Eclipse C18; Mobile Phase: A: 0.1% TFA, B: ACN; run time 15 min, Waters 2996 HPLC model).
A short description of data set [5]: Pharmacokinetics in SD rats, IV dosing (Docetaxel and 1008). Format: in vivo. The settings on record: for AUC / Cmax / Tmax / half-life: Sprague-Dawley, rat, plasma, PEG400 and Normal saline; for half-life: read-out: T1/2 elimination (converted). An excerpt: The results were compared with exposure of Docetaxel (10 mpk) using the same dosing vehicle.
Supernatant was kept for analysis.

[6] abbreviates: 3 mg/Kg iv, PEG/Normal Saline (3 mpk 1001 = 2.1 mpk Paclitaxel delivered).
Setting [7] is: concentration used for HPLC analysis 2 mg/ml.
[8] abbreviates: concentration used for HPLC analysis 1 mg/ml.

Each structure is given as a SMILES string. Converted amounts (≈) assume the structure as drawn. “Also recorded” adds a separate entry of the source. Where two headings read alike, the source gives them in different places.

This is an account of results in patent US10752589B2, “Trigonelline based compounds” (SPHAERA PHARMA PVT. LTD., priority 2016, dated 2020).

As a reminder, the solubility is the dissolved amount per volume that the medium holds. A high value points to much dissolved substance. In general, AUC refers to concentration integrated over time. Low values mean low exposure, high ones high exposure. By Tmax is commonly meant the time at which the peak concentration occurs.

Turning to `CC(=O)O[C@H]1C(=O)C2(C)C([C@H](OC(=O)c3ccccc3)[C@]3(O)C[C@H](OC(=O)[C@H](OC(=O)c4ccc[n+](C)c4)[C@H](NC(=O)c4ccccc4)c4ccccc4)C(C)=C1C3(C)C)[C@]1(OC(C)=O)CO[C@@H]1C[C@@H]2O.[I-]` (stereo partly drawn) [Compound 1001, 3-((((1R,2R)-1-benzamido-3-(((2aR,4S,6R,9S,11S,12S,12bS)-6,12b-diacetoxy-12-(benzoyloxy)-4,11-dihydroxy-4a,8,13,13-tetramethyl-5-oxo-2a,3,4,4a,5,6,9,10,11,12,12a,12b-dodecahydro-1H-7,11-methanocyclodeca[3,4]benzo[1,2-b]oxet-9-yl)oxy)-3-oxo-1-phenylpropan-2-yl)oxy)carbonyl)-1-methylpyridin-1-ium iodide], the “Fold increase in solubility” value was > 10,000 × in data set [1] (Normal Saline with 5% Dimethylacetamide), > 12,000 × in data set [1] (Normal Saline with 5% Dimethylsulfoxide), > 15,000 × in data set [1] (Normal Saline with 9% N-Methylpyrrolidone) and more than 5000 × in data set [1] (Normal Saline). In addition, in data set [1], the “Solubility compared with parent drug” value was “increased solubility; also recorded: better aqueous solubility”. In addition, the solubility in data set [1] (aqueous with cosolvent or surfactant or cyclodextrin, Solubility in 5% DMA in normal saline, 5% DMA in normal saline) was approximately 1000 µg/mL; in data set [1] (aqueous with cosolvent or surfactant or cyclodextrin, Solubility in 5% DMSO in Normal saline, 5% DMSO in Normal saline), more than 1200 µg/mL; in data set [1] (aqueous with cosolvent or surfactant or cyclodextrin, Solubility in 9% NP in Normal Saline, 9% NP in Normal Saline) it was more than 1500 µg/mL; in data set [1] (saline or isotonic, Solubility in Normal saline, Normal saline), more than 500 µg/mL. In data set [1] (selected solvent systems in normal saline), the “Stability in the selected solvents” value is listed as “stable”. Besides, the “Stability and solubility in the dosing vehicle” value in data set [2] is “stable and soluble”. The Cmax in data set [3] (1 mg/Kg iv, PEG/Normal Saline (1 mpk 1001 = 0.71 mpk Paclitaxel delivered)) was found to be 2384 nm; in data set [3] (setting [6]), 8620 nm. Besides, the “Fold increase in the AUC” value in data set [3] (iv, versus Paclitaxel) is “more than 10 fold”. In addition, the “Fold increase in the Cmax” value in data set [3] (iv, versus Paclitaxel) is reported as “more than 80 folds”.
On to `CN1CC(=O)N2[C@H](c3ccc4c(c3)OCO4)c3c(c4ccccc4n3C(=O)c3ccc[n+](C)c3)C[C@@H]2C1=O` [Compound 1005, 3-((6R,12aR)-6-(benzo[d][1,3]dioxol-5-yl)-2-methyl-1,4-dioxo-1,2,3,4,6,7,12,12a-octahydropyrazino[1′,2′:1,6]pyrido[3,4-b]indole-7-carbonyl)-1-methylpyridin-1-ium iodide], for which the “Aqueous solubility over parent drug” value in data set [4] is listed as “significant increase”. Further, in data set [4] (2 mg/ml, versus parent Tadalafil), the “Fold increase in solubility for equiv. wt of DM using HPLC” value is reported as 80 fold. The solubility result in data set [4] (setting [7]) is on record as “Completely”.
Turning to `CC(=O)O[C@@]12CO[C@@H]1C[C@H](O)[C@@]1(C)C(=O)[C@H](O)C3=C(C)[C@@H](OC(=O)[C@H](OC(=O)c4ccc[n+](C)c4)[C@@H](NC(=O)OC(C)(C)C)c4ccccc4)C[C@@](O)([C@@H](OC(=O)c4ccccc4)[C@H]21)C3(C)C.[I-]` [Compound 1008, 3-((((2R,3S)-1-(((2aR,4S,4aS,6R,9S,11S,12S,12aR,12bS)-12b-acetoxy-12-(benzoyloxy)-4,6,11-trihydroxy-4a,8,13,13-tetramethyl-5-oxo-2a,3,4,4a,5,6,9,10,11,12,12a,12b-dodecahydro-1H-7,11-methanocyclodeca[3,4]benzo[1,2-b]oxet-9-yl)oxy)-3-((tert-butoxycarbonyl)amino)-1-oxo-3-phenylpropan-2-yl)oxy)carbonyl)-1-methylpyridin-1-ium iodide], in data set [1], the “Solubility compared with parent drug” value is listed as “better aqueous solubility”. The “Exposure compared to the parent drug” value in data set [5] (IV, 1008 3 mpk versus Docetaxel 10 mpk) is on record as “significantly higher exposure”. In data set [5] (IV, versus Docetaxel), the “Pharmacokinetics compared to the original compound” value was “enhanced pharmacokinetics”. Moreover, in data set [5] (3 mg/kg, 3 mpk IV), the AUC was 1.04 µM·h, the Cmax worked out at 6.92 µM, the Tmax came out at 4.8 min and the half-life was 107 min. Further, the “Stability and solubility in the dosing vehicle” value in data set [2] was “stable and soluble”.
On to `C[n+]1cccc(C(=O)N2CCCC[C@@H]2[C@@H](O)c2cc(C(F)(F)F)nc3c(C(F)(F)F)cccc23)c1` [Compound 1011, 3-((R)-2((S)-(2,8-bis(trifluoromethyl)quinolin-4 yl)(hydroxy)methyl)piperidine-1-carbonyl)-1-methylpyridin-1-ium], for which the “Aqueous solubility over parent drug” value in data set [4] was “significant increase”. For the same molecule, the “Fold increase in solubility for equiv. wt of DM using HPLC” value in data set [4] (1 mg/ml, versus parent Mefloquine) is given as 2.4 fold. Besides, the solubility entry in data set [4] (setting [8]) is “Completely”.
For the molecule `CC(=O)O[C@@]12CO[C@@H]1C[C@H](O)[C@@]1(C)C(=O)[C@H](O)C3=C(C)[C@@H](OC(=O)[C@H](O)[C@@H](NC(=O)OC(C)(C)C)c4ccccc4)C[C@@](O)([C@@H](OC(=O)c4ccccc4)[C@H]21)C3(C)C` [Docetaxel, reference compound], in data set [5] (10 mg/kg, 10 mpk IV), the AUC stood at 0.897 µM·h, the Cmax came to 0.495 µM, the Tmax turned out to be 4.8 min and the half-life is 124 min.
Turning to `OC(c1cc(C(F)(F)F)nc2c(C(F)(F)F)cccc12)C1CCCCN1` (stereo not shown) [Mefloquine, reference compound], the solubility result in data set [4] (setting [8]) was “Poor”.
As to `CC(=O)O[C@H]1C(=O)[C@@]2(C)[C@H]([C@H](OC(=O)c3ccccc3)[C@]3(O)C[C@H](OC(=O)[C@H](O)[C@@H](NC(=O)c4ccccc4)c4ccccc4)C(C)=C1C3(C)C)[C@]1(OC(C)=O)CO[C@@H]1C[C@@H]2O` [Paclitaxel, reference compound], the “Solubility in 5% DMA in normal saline” value in data set [1] (5% DMA in normal saline) is “Not soluble”. Besides, the “Solubility in 5% DMSO in Normal saline” value in data set [1] (5% DMSO in Normal saline) is given as “Not soluble”. For the same molecule, the “Solubility in 9% NP in Normal Saline” value in data set [1] (9% NP in Normal Saline) is “Not soluble”. Further, the solubility in data set [1] (normal saline, saline or isotonic, Solubility in Normal saline) came out at 0.1 µg/mL (≈ 0.117 µM). This molecule also came in with a Cmax in data set [3] (setting [6]) of 104 nm.
For `CN1CC(=O)N2[C@H](c3ccc4c(c3)OCO4)c3[nH]c4ccccc4c3C[C@@H]2C1=O` [Tadalafil, reference compound], the solubility entry in data set [4] (setting [7]) is “Very poor”.
